Broadly, the IC50 is the concentration that inhibits the measured activity by half. A higher IC50 goes with weaker potency. A word on the koff: it is the rate constant with which the complex falls apart. As usually defined, the kon is a measure of how fast the partners come together. In general, Kd refers to the constant that tells how readily two partners part at equilibrium. High values mean lower affinity, low ones higher affinity.

One assay deals with D. immitis iPGM (Dirofilaria immitis, UniProt F4ZE01). In words: biochemical.
Assay [1] addresses T1, E. coli iPGM (Escherichia coli, UniProt P37689). In words: biochemical. The following applies: […].
In the next assay the target is T2, B. malayi iPGM (Brugia malayi, UniProt Q4VWF8).
T2 sequence (Q4VWF8 1-515): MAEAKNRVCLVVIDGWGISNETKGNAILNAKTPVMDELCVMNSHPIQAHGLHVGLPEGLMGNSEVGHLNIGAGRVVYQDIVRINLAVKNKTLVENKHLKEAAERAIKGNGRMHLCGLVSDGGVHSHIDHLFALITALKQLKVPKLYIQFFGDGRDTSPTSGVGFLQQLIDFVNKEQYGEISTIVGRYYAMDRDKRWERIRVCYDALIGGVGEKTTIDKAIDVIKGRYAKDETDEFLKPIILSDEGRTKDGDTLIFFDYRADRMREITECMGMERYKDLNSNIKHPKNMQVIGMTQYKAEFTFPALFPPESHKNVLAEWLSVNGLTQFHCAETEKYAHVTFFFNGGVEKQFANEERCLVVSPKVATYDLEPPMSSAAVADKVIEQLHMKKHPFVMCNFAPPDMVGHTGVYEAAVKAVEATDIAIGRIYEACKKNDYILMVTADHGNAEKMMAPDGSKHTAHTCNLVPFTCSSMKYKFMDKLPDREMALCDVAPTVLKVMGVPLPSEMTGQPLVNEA
In words: biochemical. Format: binding. The conditions noted are these: for Kd: Supplementary Table 5, SPR, B.m. iPGM, unit inferred.

In assay [2] the target is T1, E. coli iPGM. In words: SPR binding kinetics and saturation binding, biotinylated iPGM on Biotin CAPture chip (Biacore S200). The conditions noted are these: for koff / kon: LoQ = limit of quantitation; for Kd: unit inferred. In general terms: Surface plasmon resonance follows binding to a sensor surface in real time, without labels.
The target of another assay is C. elegans iPGM (Caenorhabditis elegans, UniProt G5EFZ1). The description is as above.
Where [3] appears, read: Supplementary Table 5, SPR, E.c. iPGM.
The mark [4] stands for this setting: SPR, 25 °C, global fit to 1:1 binding model.

Like-named read-outs stand apart in the source and are kept apart here. Bridge positions count the residues as written; N and C are the ends. Square brackets hold non-standard residues; d marks the D form. Peptide text beside a SMILES is read from it. Phe(4-F) = N[C@@H](Cc1ccc(F)cc1)C(=O)O; Abu = CC[C@H](N)C(=O)O

Regarding `CC(C)C[C@H](NC(=O)[C@H](Cc1ccc(O)cc1)NC(=O)[C@@H]1CSCC(=O)N[C@H](Cc2ccc(O)cc2)C(=O)N[C@@H](CC(=O)O)C(=O)N[C@@H](Cc2ccc(O)cc2)C(=O)N2CCC[C@H]2C(=O)NCC(=O)N[C@@H](CC(=O)O)C(=O)N[C@@H](Cc2ccc(O)cc2)C(=O)N1)C(=O)N[C@@H](Cc1ccc(O)cc1)C(=O)NCC(=O)N[C@H](C(=O)NO)[C@@H](C)O` [Ce-2 C14NHOH], the results for the 50% inhibitory concentration (IC50) against D. immitis iPGM (Di iPGM Ave IC50 (M)) and at E. coli iPGM [1] were 2.55e-09 M and 14000 nM, respectively.
Turning to `CC(C)C[C@H](NC(=O)[C@H](Cc1ccc(F)cc1)NC(=O)[C@@H]1CSCC(=O)N[C@H](Cc2ccc(O)cc2)C(=O)N[C@@H](CC(=O)O)C(=O)N[C@@H](Cc2ccc(O)cc2)C(=O)N2CCC[C@H]2C(=O)NCC(=O)N[C@@H](CC(=O)O)C(=O)N[C@@H](Cc2ccc(O)cc2)C(=O)N1)C(=O)N[C@@H](Cc1ccc(O)cc1)C(=O)NCC(=O)N[C@H](C(=O)N[C@@H](CS)C(N)=O)[C@@H](C)O` [Ce-2 Y9(4F)F] ({CH2CO}-[dY]DYPGDYC[Phe(4-F)]LYGTC-NH2; thioether N-8), the IC50 is 2.8e-09 M on D. immitis iPGM (Di iPGM Ave IC50 (M)) and 6930 nM against E. coli iPGM [1].
With `CC(C)C[C@H](NC(=O)[C@H](Cc1ccc(O)cc1)NC(=O)[C@@H]1CSCC(=O)N[C@H](Cc2ccc(O)cc2)C(=O)N[C@@H](CCC(N)=O)C(=O)N[C@@H](Cc2ccc(O)cc2)C(=O)N2CCC[C@H]2C(=O)NCC(=O)N[C@@H](CC(=O)O)C(=O)N[C@@H](Cc2ccc(O)cc2)C(=O)N1)C(=O)N[C@@H](Cc1ccc(O)cc1)C(N)=O` [Ce-2d D2Q], the results for the 50% inhibitory concentration (IC50) on D. immitis iPGM (Di iPGM Ave IC50 (M)) and against E. coli iPGM [1] were 3.31e-07 M and 8040 nM, respectively.
On to `CC(C)C[C@H](NC(=O)[C@H](Cc1ccccc1)NC(=O)[C@@H]1CSCC(=O)N[C@H](Cc2ccc(O)cc2)C(=O)N[C@@H](CC(=O)O)C(=O)N[C@@H](Cc2ccc(O)cc2)C(=O)N2CCC[C@H]2C(=O)NCC(=O)N[C@@H](CC(=O)O)C(=O)N[C@@H](Cc2ccc(O)cc2)C(=O)N1)C(=O)N[C@@H](Cc1ccc(O)cc1)C(=O)NCC(=O)N[C@H](C(=O)N[C@@H](CS)C(N)=O)[C@@H](C)O` [Ce-2 Y9F] ({CH2CO}-[dY]DYPGDYCFLYGTC-NH2; thioether N-8), for which the IC50 against D. immitis iPGM (Di iPGM Ave IC50 (M)) was 2.69e-09 M; against D. immitis iPGM (IC50 (M)), 2.79e-09 M; against E. coli iPGM [1], 815 nM.
On E. coli iPGM [1], `CC(C)C[C@H](NC(=O)[C@H](Cc1ccc(O)cc1)NC(=O)[C@@H]1CSCC(=O)N[C@H](Cc2ccc(O)cc2)C(=O)N[C@@H](CC(=O)O)C(=O)N[C@@H](Cc2ccc(O)cc2)C(=O)N2CCC[C@H]2C(=O)N[C@@H](CC(C)C)C(=O)N[C@@H](CC(=O)O)C(=O)N[C@@H](Cc2ccc(O)cc2)C(=O)N1)C(=O)N[C@@H](Cc1ccc(O)cc1)C(N)=O` [Ce-2d G5L] came in with an IC50 of 13200 nM.
For `CC(C)C[C@H](NC(=O)[C@H](Cc1ccccc1)NC(=O)[C@@H]1CSCC(=O)N[C@H](Cc2ccc(O)cc2)C(=O)N[C@@H](CC(=O)O)C(=O)N[C@@H](Cc2ccc(O)cc2)C(=O)N2CCC[C@H]2C(=O)NCC(=O)N[C@@H](CC(=O)O)C(=O)N[C@@H](Cc2ccccc2)C(=O)N1)C(=O)N[C@@H](Cc1ccc(O)cc1)C(=O)NCC(=O)N[C@H](C(=O)N[C@@H](CS)C(N)=O)[C@@H](C)O` [Ce-2 Y7F, Y9F] ({CH2CO}-[dY]DYPGDFCFLYGTC-NH2; thioether N-8), the half-inhibitory concentration (IC50) was 2.07e-08 M against D. immitis iPGM (Di iPGM Ave IC50 (M)), 2.03e-08 M at D. immitis iPGM (IC50 (M)) and 4460 nM on E. coli iPGM [1].
Take `CC[C@H](C)[C@@H]1NC(=O)[C@H](Cc2ccc(O)cc2)NC(=O)[C@H](CC(=O)O)NC(=O)[C@@H](Cc2ccc(O)cc2)NC(=O)CSC[C@@H](C(=O)N[C@@H](Cc2ccc(O)cc2)C(=O)N[C@@H](CC(C)C)C(=O)N[C@@H](Cc2ccc(O)cc2)C(N)=O)NC(=O)[C@H](Cc2ccc(O)cc2)NC(=O)[C@H](CC(=O)O)NC(=O)CNC1=O` [Ce-2d P4I]: the IC50 against D. immitis iPGM (Di iPGM Ave IC50 (M)) came to 2.21e-07 M; against E. coli iPGM [1] it was 21900 nM.
For `CC(C)C[C@H](NC(=O)[C@H](Cc1ccc(O)cc1)NC(=O)[C@@H]1CSCC(=O)N[C@H](Cc2ccc(O)cc2)C(=O)N[C@@H](CC(=O)O)C(=O)N[C@@H](Cc2ccc(O)cc2)C(=O)N2CCC[C@H]2C(=O)NCC(=O)N[C@@H](CC(=O)O)C(=O)N[C@@H](Cc2ccc(O)cc2)C(=O)N1)C(=O)N[C@@H](Cc1ccc(O)cc1)C(=O)NCC(=O)NCC(=O)NO` [Ce-2 T13G, C14NHOH], on B. malayi iPGM, the koff came to 0.0284 s⁻¹, the kon was found to be 110000 M⁻¹ s⁻¹ and the Kd stood at 245 nM. The half-inhibitory concentration (IC50) against D. immitis iPGM (Di iPGM Ave IC50 (M)) was found to be 1.84e-07 M. Further, at E. coli iPGM [2] (setting [3]), the koff result is “> LOQ” and the kon entry is “> LOQ”. Moreover, at C. elegans iPGM, the Kd is 16.3 nM, the koff turned out to be 0.00251 s⁻¹ and the on-rate constant (kon) was determined as 197000 M⁻¹ s⁻¹.
Take `CC[C@@H]1NC(=O)[C@@H](Cc2ccc(O)cc2)NC(=O)CSC[C@@H](C(=O)N[C@@H](Cc2ccc(O)cc2)C(=O)N[C@@H](CC(C)C)C(=O)N[C@@H](Cc2ccc(O)cc2)C(=O)NCC(=O)N[C@H](C(=O)N[C@@H](CS)C(N)=O)[C@@H](C)O)NC(=O)[C@H](Cc2ccc(O)cc2)NC(=O)[C@H](CC(=O)O)NC(=O)CNC(=O)[C@@H]2CCCN2C(=O)[C@H](Cc2ccc(O)cc2)NC1=O` [Ce-2 D2Abu] ({CH2CO}-[dY][Abu]YPGDYCYLYGTC-NH2; thioether N-8): the koff was 0.000125 s⁻¹ on B. malayi iPGM, 0.00202 s⁻¹ on E. coli iPGM [2] (setting [3]) and 4.55e-05 s⁻¹ on C. elegans iPGM. For the same compound, the figures for the kon on B. malayi iPGM, at E. coli iPGM [2] (setting [3]) and at C. elegans iPGM were 561000 M⁻¹ s⁻¹, 270000 M⁻¹ s⁻¹ and 3.04e+06 M⁻¹ s⁻¹, respectively. Moreover, the Kd was 0.223 nM at B. malayi iPGM, 25.4 nM on E. coli iPGM [2] (setting [3]) and 0.0157 nM at C. elegans iPGM. For the same compound, the values for the IC50 against D. immitis iPGM (Di iPGM Ave IC50 (M)) and at D. immitis iPGM (IC50 (M)) were 1.52e-09 M and 1.57e-09 M, respectively.
As to `CC(C)C[C@H](NC(=O)[C@H](Cc1ccc(O)cc1)NC(=O)[C@@H]1CSCC(=O)N[C@H](Cc2ccc(O)cc2)C(=O)N[C@@H](CC(=O)O)C(=O)N[C@@H](Cc2ccc(O)cc2)C(=O)N2CCC[C@H]2C(=O)NCC(=O)N[C@@H](CC(=O)O)C(=O)N[C@@H](Cc2ccc(O)cc2)C(=O)N1)C(=O)N[C@@H](Cc1ccc(O)cc1)C(=O)NCC(=O)N[C@@H](CO)C(=O)N[C@@H](CS)C(N)=O` [Ce-2 Thr13Ser], the koff on B. malayi iPGM came to 7.84e-05 s⁻¹; on B. malayi iPGM (setting [4]), 7.8e-05 s⁻¹; at E. coli iPGM [2] (SPR, 25 °C, global fit to 1:1 binding model, read-out: koff), 0.00033 s⁻¹; on E. coli iPGM [2] (setting [3]), 0.000333 s⁻¹; at C. elegans iPGM, 7.83e-05 s⁻¹; at C. elegans iPGM (setting [4]), 0.00017 s⁻¹. In addition, the on-rate constant (kon) was 1.47e+06 M⁻¹ s⁻¹ at B. malayi iPGM; 1.6e+06 M⁻¹ s⁻¹ at B. malayi iPGM (setting [4]); 240000 M⁻¹ s⁻¹ on E. coli iPGM [2] (SPR, 25 °C, global fit to 1:1 binding model, read-out: kon); 236000 M⁻¹ s⁻¹ at E. coli iPGM [2] (setting [3]); 2.86e+06 M⁻¹ s⁻¹ at C. elegans iPGM; 2.9e+06 M⁻¹ s⁻¹ at C. elegans iPGM (setting [4]). For the same compound, the Kd was determined as 0.0853 nM at B. malayi iPGM, 1.31 nM on E. coli iPGM [2] (setting [3]) and 0.0287 nM at C. elegans iPGM. Further, the IC50 on D. immitis iPGM (IC50 (M)) is 2.56e-09 M.
`CC(C)C[C@H](NC(=O)[C@H](Cc1ccc(O)cc1)NC(=O)[C@@H]1CSCC(=O)N[C@H](Cc2ccc(O)cc2)C(=O)N[C@@H](CC(=O)O)C(=O)N[C@@H](Cc2ccc(O)cc2)C(=O)N2CCC[C@H]2C(=O)NCC(=O)N[C@@H](CC(=O)O)C(=O)N[C@@H](Cc2ccc(O)cc2)C(=O)N1)C(=O)N[C@@H](Cc1ccc(O)cc1)C(=O)NCC(=O)N[C@@H](Cc1c[nH]cn1)C(=O)N[C@@H](CS)C(N)=O` [Ce-2 T13H]: at B. malayi iPGM, the koff is 0.000587 s⁻¹, the kon came out at 1.06e+06 M⁻¹ s⁻¹ and the Kd came to 0.555 nM. In addition, on D. immitis iPGM (IC50 (M)), inhibition was half-maximal at 3.77e-09 M (IC50). On E. coli iPGM [2] (setting [3]), this compound returned a koff of 0.0144 s⁻¹, a kon of 103000 M⁻¹ s⁻¹ and a Kd of 62.7 nM. Besides, on C. elegans iPGM, the Kd was determined as 0.0264 nM, the koff came out at 1.98e-05 s⁻¹ and the kon came to 752000 M⁻¹ s⁻¹.

(Values after paper PMC8113725, “Structure–activity relationship of ipglycermide binding to phosphoglycerate mutases” (The Journal of Biological Chemistry, 2021).)
